Tested on: male Balb/c mice
Assay: TNBS-induced experimental colitis in mice, lesion length of the colon
Assay type: in vivo
Conditions: for improvement of colitis compared with combination administration, in words: single administration at a dose higher than that in the combination administration
Method: A total of 0.08 ml of a 1:1 (v/v) mixture of 10% picrylsulfonic acid (TNBS) solution and ethanol was administered to anesthetized male Balb/c mice (Charles River Japan, Inc., Yokohama, Japan) according to previous reports (J Exp Med 2001; 193: p 827-38, J Exp Med 2001; 193: p 25-34) to thereby induce experimental colitis. The colon (large intestine) was sampled two days later, and the length of a flare site accompanied with ulcer or hyperplasia near to the lumen was measured and was defined as the lesion length. The inhibition (%) was calculated from the average lesion length of a treated group, compared with the average lesion length of a control group. The test compound suspended in a 0.5% solution of methylcellulose was orally administered to the mice via sonde once a day from two days before the beginning of colitis induction.

| Structure (SMILES) | Inhibition (%) of average lesion length (Compound 1 0.3 mg/kg/day, oral, once a day) [%] | Inhibition (%) of average lesion length (Compound 1 1 mg/kg/day, oral, once a day) [%] | Inhibition (%) of average lesion length (Compound 1 3 mg/kg/day, oral, once a day (Table 2)) [%] | Inhibition (%) of average lesion length (Compound 1 10 mg/kg/day, oral, once a day) [%] | Inhibiton (%) of average lesion length (Table 5: Compound 1 3 mg/kg/day alone) [%] | improvement of colitis, in words (single administration) | improvement of colitis compared with combination administration, in words | Inhibition (%) of average lesion length (Rosiglitazone 1 mg/kg/day, oral, once a day, single administration) [%] | Inhibition (%) of average lesion length (Rosiglitazone 10 mg/kg/day, oral, once a day, single administration) [%] | Inhibiton (%) of average lesion length (Sulfasalazine 100 mg/kg/day, oral, single administration (Table 3)) [%] | Inhibiton (%) of average lesion length (Sulfasalazine 300 mg/kg/day, oral, single administration) [%] | Inhibiton (%) of average lesion length (Table 5: Sulfasalazine 100 mg/kg/day alone) [%] |
| --- | --- | --- | --- | --- | --- | --- | --- | --- | --- | --- | --- | --- |
| CC(C)O[C@@H](Cc1cccc(CNC(=O)OCc2cccc(OC(F)(F)F)c2)c1)C(=O)O [Compound 1, 3-(3-{[3-trifluoromethoxybenzyloxycarbonylamino]methyl}phenyl)-2(S)-isopropoxypropanoic acid] | 8 | 21 | 38 | 34 | 29 | partially improves colitis | improves colitis less effectively | – | – | – | – | – |
| CN(CCOc1ccc(CC2SC(=O)NC2=O)cc1)c1ccccn1 (centres unmarked) [Rosiglitazone, rosiglitazone] | – | – | – | – | – | – | – | 23 | 37 | – | – | – |
| O=C(O)c1cc(N=Nc2ccc(S(=O)(=O)Nc3ccccn3)cc2)ccc1O [Sulfasalazine, 2-hydroxy-5-[[4-[(2-pyridinylamino)sulfonyl]phenyl]-azo]benzoic acid] | – | – | – | – | – | partially improves colitis | improves colitis less effectively | – | – | 40 | 35 | 43 |
